In patent publication USRE42890E1, “Furazanobenzimidazoles” (Basilea Pharmaceutica AG, priority 2003, dated 2011):
pIC50: −log10 of the molar value.

system: HeLa; test: MTS proliferation assay, HeLa; assay type: cell-based, human; settings: 72 h incubation, read-out: MTS proliferation assay IC 50 HeLa
Experimental: (§1) Cell lines are cultured in RPMI-1640 tissue culture medium containing either 5% or 10% fetal calf serum, 0.05 mM 2-mercaptoethanol, 2 mM glutamine and penicillin/streptomycin 50 μg/ml (complete medium) (Sigma, Buchs, Switzerland). General growth conditions are 37° C. and 7.5% CO2.
(§2) The following human cell lines (either EGFP transfected or not) are being used: HeLa (ATCC: CCL-2), KB (ATCC: CCL-17), MCF7 (ATCC: HTB-22), SK-BR-3 (ATCC: HTB-30), SK-Mel 1 (ATCC: HTB-67), SK-Mel 28 (ATCC: HTB-72), PC-3 (ATCC: CRL-1435), SW 480 (ATCC: CCL-228), NCl-H460 (ATCC: HTB-177), NCl-H1792 (ATCC: CRL-5895), HT1080 (ATCC: CCL-21), Jurkat (ATCC: TIB-152), Ramos (ATCC: CRL-1596), Raji (ATCC: CCL-86), H9 (ATCC: HTB-176), Hut78 (ATCC: TIB-161), K562 (ATCC: CCL 243), HL-60 (ATCC: CCL 240), U-87MG (ATCC: HTB-14), HepG2 (ATCC: HB-8065), U-2 OS (ATCC: HTB-96), Saos-2 (ATCC: HTB-85), U937 (ATCC: CRL 1593), Hs 578T (ATCC: HTB 126), HBL-100 (ATCC: HTB 124), Molt-4 (ATCC: CRL 1582).
(§3) The assay is performed in 96 well tissue culture plates. The cells (range: 1.5*10^3-10^4) are seeded out in 80 μl complete medium 24 h prior to compound treatment. The test compounds are added in 20 μl complete medium containing max 5% DMSO. The final compound concentrations in the assays are 10 μM, 3 μM, 1 μM and 0.3 μM, respectively. The assay plates are incubated for 72 h at culture conditions. The MTS reagent is prepared according to the manufacturer's protocol (Promega G1111). 20 μl MTS reagent are added to each well, the assay plates are quickly spun and incubated for another 3 h at culture conditions. Subsequently, the plates are shortly shaked and absorption measured with a microplate-reader at 492 nm.

Row | SMILES | pIC50
1 | CCN(CC)c1ccc(C(=O)Cn2c(-c3nonc3N)nc3ccccc32)cc1 [Example 39] | < 6.00

same assay, conditions: Homo sapiens, 72 h incubation, read-out: MTS proliferation assay IC 50 HeLa

Row | SMILES | pIC50
2 | CC(=O)Nc1nonc1-c1nc2ccccc2n1CC(=O)c1ccc(Cl)cc1 [Example 5, N-{4-[1-(4-Chlorophenacyl)-1H-benzimidazol-2-yl]-furazan-3-yl}-acetamide] | 6.00 to 7.00

system: adherent cells or suspension cells; test: Hoechst 33342 nuclear staining (fraction of apoptotic nuclei); assay type: cell-based; set-up: key: 0 relating to no activity; 1 relating to weak activity comprising less than 70% of the cells; score 2 relating to strong activity comprising more than 70% of the cells; settings: H460, conc 0.01 μm
Experimental: as §1
This assay is performed in 96 well tissue culture plates. Appropriate number of cells (adherent cells: 3-5*10^3, suspension cells: 8-10*10^3) are being seeded out in 80 μl complete medium. Adherent cells are incubated for 24 h for proper spreading out before addition of test compounds while suspension cells are immediately treated with test compounds after seeding out. The test compounds are added in 20 μl complete medium containing max 5% DMSO. […] After 24 h or 48 h incubation at culture conditions, 10 μl medium containing Hoechst 33342 dye (Sigma B-2261) at 2-5 μg/ml are added to each well. The assay plates are then further incubated for 30 minutes and subsequently analyzed with a standard inverted fluorescence microscope.
The readout allows the determination of the fraction of apoptotic nuclei as well as other morphological criteria specific for apoptosis as a function of the treatment. The following scores are used: 0 relating to no activity, 1 relating to weak activity comprising less than 70% of the cells and score 2 relating to strong activity comprising more than 70% of the cells.

Row | SMILES | Hoechst 33342 nuclear staining score
3 | CCN(CC)c1ccc(C(=O)Cn2c(-c3nonc3N)nc3ccccc32)cc1 [Example 39] | 0

same assay, conditions: H460, conc 0.1 μm

Row | SMILES | Hoechst 33342 nuclear staining score
4 | CCN(CC)c1ccc(C(=O)Cn2c(-c3nonc3N)nc3ccccc32)cc1 [Example 39] | 0

same assay, conditions: H460, conc 1 μm

Row | SMILES | Hoechst 33342 nuclear staining score
5 | CCN(CC)c1ccc(C(=O)Cn2c(-c3nonc3N)nc3ccccc32)cc1 [Example 39] | 0

same assay, conditions: HeLa, conc 0.01 μm

Row | SMILES | Hoechst 33342 nuclear staining score
6 | CC(=O)Nc1nonc1-c1nc2ccccc2n1CC(=O)c1ccc(Cl)cc1 [Example 5, N-{4-[1-(4-Chlorophenacyl)-1H-benzimidazol-2-yl]-furazan-3-yl}-acetamide] | 0
7 | CCN(CC)c1ccc(C(=O)Cn2c(-c3nonc3N)nc3ccccc32)cc1 [Example 39] | 0

same assay, conditions: HeLa, conc 0.1 μm

Row | SMILES | Hoechst 33342 nuclear staining score
8 | CC(=O)Nc1nonc1-c1nc2ccccc2n1CC(=O)c1ccc(Cl)cc1 [Example 5, N-{4-[1-(4-Chlorophenacyl)-1H-benzimidazol-2-yl]-furazan-3-yl}-acetamide] | 0
9 | CCN(CC)c1ccc(C(=O)Cn2c(-c3nonc3N)nc3ccccc32)cc1 [Example 39] | 0

same assay, conditions: HeLa, conc 1 μm

Row | SMILES | Hoechst 33342 nuclear staining score
10 | CC(=O)Nc1nonc1-c1nc2ccccc2n1CC(=O)c1ccc(Cl)cc1 [Example 5, N-{4-[1-(4-Chlorophenacyl)-1H-benzimidazol-2-yl]-furazan-3-yl}-acetamide] | 2 (score 2 relating to strong activity comprising more than 70% of the cells)
11 | CCN(CC)c1ccc(C(=O)Cn2c(-c3nonc3N)nc3ccccc32)cc1 [Example 39] | 0

same assay, conditions: Jily, conc 0.01 μm

Row | SMILES | Hoechst 33342 nuclear staining score
12 | CCN(CC)c1ccc(C(=O)Cn2c(-c3nonc3N)nc3ccccc32)cc1 [Example 39] | 0

same assay, conditions: Jily, conc 0.1 μm

Row | SMILES | Hoechst 33342 nuclear staining score
13 | CCN(CC)c1ccc(C(=O)Cn2c(-c3nonc3N)nc3ccccc32)cc1 [Example 39] | 0

same assay, conditions: Jily, conc 1 μm

Row | SMILES | Hoechst 33342 nuclear staining score
14 | CCN(CC)c1ccc(C(=O)Cn2c(-c3nonc3N)nc3ccccc32)cc1 [Example 39] | 0

same assay, conditions: Jurkat, conc 0.01 μm

Row | SMILES | Hoechst 33342 nuclear staining score
15 | CC(=O)Nc1nonc1-c1nc2ccccc2n1CC(=O)c1ccc(Cl)cc1 [Example 5, N-{4-[1-(4-Chlorophenacyl)-1H-benzimidazol-2-yl]-furazan-3-yl}-acetamide] | 0
16 | CCN(CC)c1ccc(C(=O)Cn2c(-c3nonc3N)nc3ccccc32)cc1 [Example 39] | 0

same assay, conditions: Jurkat, conc 0.1 μm

Row | SMILES | Hoechst 33342 nuclear staining score
17 | CC(=O)Nc1nonc1-c1nc2ccccc2n1CC(=O)c1ccc(Cl)cc1 [Example 5, N-{4-[1-(4-Chlorophenacyl)-1H-benzimidazol-2-yl]-furazan-3-yl}-acetamide] | 0
18 | CCN(CC)c1ccc(C(=O)Cn2c(-c3nonc3N)nc3ccccc32)cc1 [Example 39] | 0

same assay, conditions: Jurkat, conc 1 μm

Row | SMILES | Hoechst 33342 nuclear staining score
19 | CC(=O)Nc1nonc1-c1nc2ccccc2n1CC(=O)c1ccc(Cl)cc1 [Example 5, N-{4-[1-(4-Chlorophenacyl)-1H-benzimidazol-2-yl]-furazan-3-yl}-acetamide] | 2 (score 2 relating to strong activity comprising more than 70% of the cells)
20 | CCN(CC)c1ccc(C(=O)Cn2c(-c3nonc3N)nc3ccccc32)cc1 [Example 39] | 0

same assay, conditions: MRC5, conc 0.01 μm

Row | SMILES | Hoechst 33342 nuclear staining score
21 | CC(=O)Nc1nonc1-c1nc2ccccc2n1CC(=O)c1ccc(Cl)cc1 [Example 5, N-{4-[1-(4-Chlorophenacyl)-1H-benzimidazol-2-yl]-furazan-3-yl}-acetamide] | 0
22 | CCN(CC)c1ccc(C(=O)Cn2c(-c3nonc3N)nc3ccccc32)cc1 [Example 39] | 0

same assay, conditions: MRC5, conc 0.1 μm

Row | SMILES | Hoechst 33342 nuclear staining score
23 | CC(=O)Nc1nonc1-c1nc2ccccc2n1CC(=O)c1ccc(Cl)cc1 [Example 5, N-{4-[1-(4-Chlorophenacyl)-1H-benzimidazol-2-yl]-furazan-3-yl}-acetamide] | 0
24 | CCN(CC)c1ccc(C(=O)Cn2c(-c3nonc3N)nc3ccccc32)cc1 [Example 39] | 0

same assay, conditions: MRC5, conc 1 μm

Row | SMILES | Hoechst 33342 nuclear staining score
25 | CC(=O)Nc1nonc1-c1nc2ccccc2n1CC(=O)c1ccc(Cl)cc1 [Example 5, N-{4-[1-(4-Chlorophenacyl)-1H-benzimidazol-2-yl]-furazan-3-yl}-acetamide] | 0
26 | CCN(CC)c1ccc(C(=O)Cn2c(-c3nonc3N)nc3ccccc32)cc1 [Example 39] | 0

same assay, conditions: PBLs, conc 0.01 μm

Row | SMILES | Hoechst 33342 nuclear staining score
27 | CC(=O)Nc1nonc1-c1nc2ccccc2n1CC(=O)c1ccc(Cl)cc1 [Example 5, N-{4-[1-(4-Chlorophenacyl)-1H-benzimidazol-2-yl]-furazan-3-yl}-acetamide] | 0
28 | CCN(CC)c1ccc(C(=O)Cn2c(-c3nonc3N)nc3ccccc32)cc1 [Example 39] | 0

same assay, conditions: PBLs, conc 0.1 μm

Row | SMILES | Hoechst 33342 nuclear staining score
29 | CC(=O)Nc1nonc1-c1nc2ccccc2n1CC(=O)c1ccc(Cl)cc1 [Example 5, N-{4-[1-(4-Chlorophenacyl)-1H-benzimidazol-2-yl]-furazan-3-yl}-acetamide] | 0
30 | CCN(CC)c1ccc(C(=O)Cn2c(-c3nonc3N)nc3ccccc32)cc1 [Example 39] | 0

same assay, conditions: PBLs, conc 1 μm

Row | SMILES | Hoechst 33342 nuclear staining score
31 | CC(=O)Nc1nonc1-c1nc2ccccc2n1CC(=O)c1ccc(Cl)cc1 [Example 5, N-{4-[1-(4-Chlorophenacyl)-1H-benzimidazol-2-yl]-furazan-3-yl}-acetamide] | 0
32 | CCN(CC)c1ccc(C(=O)Cn2c(-c3nonc3N)nc3ccccc32)cc1 [Example 39] | 0

system: MRC5; test: MTS proliferation assay, MRC5; assay type: cell-based; settings: Homo sapiens; MRC5, 72 h incubation; read-out: MTS proliferation assay IC 50 MRC5
Experimental: as §1, §3

Row | SMILES | pIC50
33 | CC(=O)Nc1nonc1-c1nc2ccccc2n1CC(=O)c1ccc(Cl)cc1 [Example 5, N-{4-[1-(4-Chlorophenacyl)-1H-benzimidazol-2-yl]-furazan-3-yl}-acetamide] | 6.00 to 7.00

same assay, conditions: MRC5, 72 h incubation; read-out: MTS proliferation assay IC 50 MRC5

Row | SMILES | pIC50
34 | CCN(CC)c1ccc(C(=O)Cn2c(-c3nonc3N)nc3ccccc32)cc1 [Example 39] | < 6.00

system: Jurkat; test: MTS proliferation assay, Jurkat; assay type: cell-based, human; settings: 72 h incubation, read-out: MTS proliferation assay IC 50 Jurkat
Experimental: as §1, §2, §3

Row | SMILES | pIC50
35 | CCN(CC)c1ccc(C(=O)Cn2c(-c3nonc3N)nc3ccccc32)cc1 [Example 39] | < 6.00

same assay, conditions: Homo sapiens, 72 h incubation, read-out: MTS proliferation assay IC 50 Jurkat

Row | SMILES | pIC50
36 | CC(=O)Nc1nonc1-c1nc2ccccc2n1CC(=O)c1ccc(Cl)cc1 [Example 5, N-{4-[1-(4-Chlorophenacyl)-1H-benzimidazol-2-yl]-furazan-3-yl}-acetamide] | 6.00 to 7.00
